From US9572895B2, “Multiplexed supramolecular assemblies for non-viral delivery of genetic material” (The Board of Trustees of the University of Illinois, priority 2010, dated 2017)

Test system: plasmid DNA
Test: Gel retardation assay on plasmid DNA
Assay type: binding
Conditions: various agent:DNA mass ratios, 1% agarose gel
Method: A solution of DNA (1 μg/10 μL) was prepared in doubled distilled water. Appropriate amounts of spermine, DOS or oligoarginine dissolved in double distilled water were added to the DNA solution (10 μL) to achieve the desired spermine:DNA, DOS:DNA or Arg9:DNA weight ratio (FIGS. 6 and 7). Complexes were incubated at room temperature for 15 min, after which loading dye was added and the solution (10 μL) was run on a 1% agarose gel (70 V, 70 min). DNA was stained with ethidium bromide and visualized on a Gel Doc imaging system (Biorad, Herclues, Calif.).

Substance: H-Arg-Arg-Arg-Arg-Arg-Arg-Arg-Arg-Arg-OH trifluoroacetate salt [Arg9]
- electrostatic interaction with plasmid DNA (gel retardation): confirming the electrostatic interaction
